Legend:
Wistar rats [1] = experiment: Antidiabetic activity by starch loaded model; assay type: in vivo, rat; settings: test compounds 100 mg/kg, Acarbose 10 mg/kg oral
From the text: Experimental Animals—Wistar rats of either sex were used for the present study. Animals selected for use in the study were of uniform age and body weight. A minimum of 40 rats, from which eventually 20 rats were selected. Their body weights were in the range of 150-180 gm. The health status of the animals was ascertained by a veterinary surgeon. […] Animals were acclimatized for at least two weeks prior to start of the study. The animals were provided with pellet diet manufactured by NIN, HYDERABAD, India and drinking water adlibitum.
Compound Preparation The required quantity of the synthetic compounds were weighed and made suspension with gum acacia (2%). The test compounds were administered to all rats by per oral route. Acarbose suspension was also prepared in gum acasia suspension and given by oral route.
Antidiabetic activity by Starch model: The method of Rao et al., 2009;Tiwari et al was employed. Animals were fasted over night (12 hrs). Basal blood glucose levels were estimated for all the animals prior to dosing in test and standard groups. This was designated as “0” min reading. […] After test compounds administration animals in all three groups received Starch aqueous solution (2 gm/kg body weight). Blood glucose levels were monitored at 30, 60, 90 and 120 min after the administration of Starch in all the three groups. The percentage of increase in, blood glucose levels was calculated with respect to the control group at each time point.

mice = experiment: Adenosine mediated bronchoconstriction and lung inflammation in an allergic mouse model; assay type: in vivo; parameters: Total count: unit not given here; settings: BAL fluid cells; 100 mg/kg oral
Method: Thienopyridines were proven as potent cytotoxic and anti-inflammatory agents in the previous experimental results. In cytotoxic MTT assay, activity of these molecules may be due to the involvement of adenosine receptors. Further, to find the bronchodilatory activity of these moieties and to find the involvement of adenosine receptors in their action, non-invasive and invasive adenosine mediated bronchoconstriction and lung inflammation in an allergic mouse model was performed.
Male mice, 6-8 weeks of age, free of specific pathogens were obtained from National Institute of Nutrition. The animals were maintained on a ragweed-free diet. All experimental protocols used in this study were under a protocol approved by animal ethical committee. Sensitization was performed according to the modified procedure described by Fan et al, 2002. Mice were sensitized on days 1 and 6 with i.p. injections of ragweed allergen (200 μg/200 μl of water for injection). Non-sensitized control animals received only water for injection with the same volumes. Ten days after sensitization, the mice were placed in plexiglas chamber and challenged with 0.5% ragweed or with 0.9% saline as a control for twenty minutes both in the morning and evening for three days. Then mice were divided into different groups consisting of six animals each. The groups including a control without sensitization; a sensitized group and a standard group along with groups of the test molecules were separated. Twenty-four hours after last challenge with ragweed, the mice were given an oral dose of test molecules and theophylline (100 mg/kg body weight) as acacia suspension. Two hours after administration of the oral dose, the mice were challenged with adenosine solution (24 mg/ml). The variation in respiration was recorded after anaesthetizing them with pentobarbitone sodium (0.1 ml 200 mg/ml ip) using kymograph. Then, mice were sacrificed and trachea was cannulated to collect the bronchoalveolar lavage fluid. This was performed by pumping 1 ml phosphate buffered saline into lungs through tracheal cannula and collecting the sample. Analysis of BAL fluid was performed to get the cellular differentials. The BAL fluid was centrifugated at 1500 rpm for six minutes at room temparature. After removing the supernatant, BAL cells were resuspended in 1 ml of phosphate buffered saline. Total cells were then counted manually in a hemocytometer chamber. A differential count of at least 300 cells was made according to the standard morphologic criteria and results were mentioned in table.

[2] = molecular target: T1, porcine pancreatic α-amylase (Sus scrofa, UniProt P00690); experiment: α-Amylase inhibition assay; assay type: biochemical; settings: 10 mg per ml; a/b marks the respective control (Control-1 2.147, Control-2 3.429)
T1 construct: α-amylase [EC 3.2.1.1) Type VI B: from porcine pancreas]; purchased Sigma Chemical Co., St Louis, Mo., USA; host or cells: porcine pancreas (natural source)
T1 sequence (P00690 16-511): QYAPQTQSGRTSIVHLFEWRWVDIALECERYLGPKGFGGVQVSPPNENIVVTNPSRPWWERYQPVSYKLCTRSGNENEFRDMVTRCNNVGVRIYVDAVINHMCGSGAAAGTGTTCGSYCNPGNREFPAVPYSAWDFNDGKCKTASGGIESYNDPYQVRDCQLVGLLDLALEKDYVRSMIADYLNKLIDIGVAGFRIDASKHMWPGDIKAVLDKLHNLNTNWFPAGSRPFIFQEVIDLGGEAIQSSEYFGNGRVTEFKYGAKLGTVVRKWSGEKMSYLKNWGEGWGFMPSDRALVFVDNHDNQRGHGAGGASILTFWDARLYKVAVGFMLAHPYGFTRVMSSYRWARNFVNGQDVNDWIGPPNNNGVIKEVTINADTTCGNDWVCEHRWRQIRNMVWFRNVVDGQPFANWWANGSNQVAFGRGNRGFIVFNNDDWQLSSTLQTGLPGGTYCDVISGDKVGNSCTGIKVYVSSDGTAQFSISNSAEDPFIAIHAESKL
From the text: (§1) Chemicals: α-Glucosidase [(EC 3.2.1.20) Type I: from bakers yeast], rat intestinal acetone powder (as a source of crude intestinal α-glucosidase), α-amylase [EC 3.2.1.1) Type VI B: from porcine pancreas], p-nitrophenyl α-D-glucopyranoside, 3,5-dinitro salicylic acid, soluble potato starch and 1-deoxyrojirimycine, were purchased from Sigma Chemical Co., St Louis, Mo., USA. Other chemicals of analytical grade were procured from indigenous manufacturers.
a-Amylase Inhibition Assay: The assay method was adopted from Ali et al. (2006) and modified accordingly to suite microplate reading. In brief, 40 μL of test samples (10 mg/mL DMSO) were reconstituted in 160 μL of 20 mM phosphate buffer (pH 6.9) containing 6.7 mM sodium chloride in 2 mL Eppendorf tubes and incubated with 200 μL of porcine pancreatic α-amylase) (4 U/mL prepared in ice cold distilled water) for 5 min. The reaction was started by the addition of 400-μL soluble potato starch solution (0.5% w/v in 20 mM phosphate buffer, pH 6.9). Exactly 3 min after incubation, 400 μL DNS color reagent (1.0 g of 3,5-dinitrosalicylic acid, 30 g of sodium potassium tartrate and 20 mL of 2 N NaOH to a final volume of 100 mL in distilled water) was added. Closed tubes were placed in a water bath (85-90° C.) for 10 min to develop color and cooled thereafter. 50 μL of reaction mixtures was diluted with 175 μL of distilled water in a 96-well microplate. α-Amylase activity was determined by measuring the absorbance of the mixture at 540 nm spectrophotometrically as above. Individual blanks were prepared to correct for the background absorbance due to test samples. In this case DNS solution was added in tubes before addition of substrate. The percentage inhibition of enzyme activity was calculated as above. All the tests were run in duplicate in this assay.

[3] = test system: crude intestinal α-glucosidase; experiment: In-vitro mammalian (rat intestinal) α-glucosidase inhibition assay; assay type: biochemical; settings: highest concentration 5 mg/ml
From the text: as §1
(§2) In-vitro a-Glucosidase Inhibition Assay: Yeast and intestinal a-glucosidase inhibitory activities were determined as per reported methods (Babu et al., 2004; Mc Dougall et al., 2005). Rat intestinal acetone powder in normal saline (100% w/v) was sonicated properly and the supernatant was used as a source of crude intestinal a-glucosidase after centrifugation. In brief, 20 μl, of test samples (100 mg/ml DMSO solution) were reconstituted in 100 μl of 100 mM-Phosphate buffer (pH 6.8) in a 96-well microplate and incubated with 50 μl yeast a-glucosidase (0.76 μ/ml in same buffer) or crude intestinal a-glucosidase for 5 min before 50-μl substrate (5 mM, […] prepared in same buffer) was added. Release of p-nitrophenyol was measured at 405 nm spectrophotometrically (Spectra Mas Plus 384, Molecular Device corporation, Sunnyvale, Calif., USA) 5 min after incubation with substrate, individual blank for test samples were prepared to correct background absorbance where the substrate was replaced with 50 μl of buffer. The control sample contained 20 μl DMSO in place of test samples. The percentage of enzyme inhibition was calculated as (A−B/A)×100 where A is represents the absorbance of the control without test samples, and B represents the absorbance in the presence of test samples. […] The IC50 values were calculated by applying logarithmic regression analysis from the mean inhibitory values.

yeast α-glucosidase = molecular target: T2, yeast α-glucosidase (Saccharomyces cerevisiae, UniProt P53341); experiment: In-vitro yeast α-glucosidase inhibition assay; assay type: biochemical, bakers yeast
T2 construct: α-Glucosidase [(EC 3.2.1.20) Type I: from bakers yeast]
From the text: as §1, §2

Wistar rats [4] = experiment: Carrageenan induced paw edema model; assay type: in vivo, rat; settings: Rattus norvegicus, po, 3 h
Method: Male Albino Wistar rats of 150-180 grams were used for the experiments.
Anti-inflammatory activity of test compounds was evaluated in Wistar rats employing the method of Winter et al (1963) and Diwan et al (1989). Male Wistar rats were used for the study. […] The different test compounds were administered to the animals in the test group at the dose of 100 mg/kg, by oral route. Animals in the standard group received Indomethacin at the dose of 10 mg/kg, by oral route. All test and standard compounds were administered as 1% gum acacia suspension. Rats in the control group received the vehicle solution without drugs. One hour after test drugs administration, rats in all the groups were challenged with 0.1 ml of 1% Carrageenan in the sub plantar region of right hind paw. A zero hour paw volume was measured for all the rats using digital plethysmometer (Ugo Basile, Italy) before the administration of carrageenan for all groups. Paw volumes were again measured 3 hrs after the challenge of Carrageenan. The percent inhibition of paw volume for each rat in treated groups was calculated by comparing with mean paw volume of control group and expressed as mean (±SE) percent inhibition of paw volume for each test. In a preliminary study the compounds that have shown good activity were evaluated for dose response study by using above procedure.

T2 sequence (P53341 whole entry): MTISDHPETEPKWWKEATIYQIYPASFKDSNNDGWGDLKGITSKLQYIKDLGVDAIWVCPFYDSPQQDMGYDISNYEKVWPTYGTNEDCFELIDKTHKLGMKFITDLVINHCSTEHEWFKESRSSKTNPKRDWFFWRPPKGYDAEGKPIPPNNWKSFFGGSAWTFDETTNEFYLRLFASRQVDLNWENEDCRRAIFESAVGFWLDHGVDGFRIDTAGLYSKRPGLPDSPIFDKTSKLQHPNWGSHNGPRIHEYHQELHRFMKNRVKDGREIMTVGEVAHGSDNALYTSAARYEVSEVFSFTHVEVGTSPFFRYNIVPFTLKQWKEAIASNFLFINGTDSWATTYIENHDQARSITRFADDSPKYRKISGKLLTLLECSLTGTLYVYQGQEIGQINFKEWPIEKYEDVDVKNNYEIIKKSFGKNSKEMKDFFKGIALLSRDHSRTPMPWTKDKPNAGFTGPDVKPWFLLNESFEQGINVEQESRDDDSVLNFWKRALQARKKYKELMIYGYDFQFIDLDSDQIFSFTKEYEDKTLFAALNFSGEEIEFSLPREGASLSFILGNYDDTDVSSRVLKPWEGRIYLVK

SMILES	% Increase in glucose, 30 min (Wistar rats [1]; 30 min after starch) [%]	Blood glucose level, 30 min (Wistar rats [1]; 30 min after starch, in mg/dL (unit assumed))	% Increase in glucose, 60 min (Wistar rats [1]; 60 min after starch) [%]	Blood glucose level, 60 min (Wistar rats [1]; 60 min after starch, in mg/dL (unit assumed))	% Increase in glucose, 90 min (Wistar rats [1]; 90 min after starch) [%]	Blood glucose level, 90 min (Wistar rats [1]; 90 min after starch, in mg/dL (unit assumed))	% Increase in glucose, 120 min (Wistar rats [1]; 120 min after starch) [%]	Blood glucose level, 120 min (Wistar rats [1]; 120 min after starch, in mg/dL (unit assumed))	Blood glucose level, 0 min (Wistar rats [1]; basal, prior to dosing, starch 2 gm/kg, in mg/dL (unit assumed))	Differential count (%) Eosinophils (mice) [%]	Differential count (%) Lymphocytes (mice) [%]	Differential count (%) Monocytes (mice) [%]	Total count (mice)	Maltose released [2] [mg/mL]	Mammalian α Glucosidase Inhibition (Mean ± S.E) [3] [%]	Yeast α-glucosidase enzyme inhibitory activity (in words) (yeast α-glucosidase)	change in vivo at 100 mg/kg (Wistar rats [4]; read-out: % Increase in Paw Volume) [%]	inhibition in vivo at 100 mg/kg (Wistar rats [4]; read-out: % Inhibition (paw volume)) [%]
C[C@H]1O[C@H](O[C@H]2[C@H](O)[C@@H](O)[C@@H](O[C@H]3[C@H](O)[C@@H](O)C(O)O[C@@H]3CO)O[C@@H]2CO)[C@H](O)[C@@H](O)[C@@H]1N[C@H]1C=C(CO)[C@@H](O)[C@H](O)[C@H]1O (stereo partly drawn) [Acarbose, reference compound]	23.55	103.17	32.03	110.17	31.78	109.83	30.27	108.62	83.50									
Nc1c2c(nc3sc4c(c13)CCCCC4)CCCC2 [BN-19, 2,3,4,7,8,9,10,11-Octahydro-1H-cyclohepta[4,5]thieno[2,3-b]quinolin-12-Amine]										10	80	10	11.5	3.282	0.0 ± 0.0	moderate inhibitory activity	90.4 ± 11.4	0

Source: patent US20110269790A1, “NOVEL THIENOPYRIDINES AS PHARMACOLOGICALLY ACTIVE AGENTS” (priority 2009, published 2011)
